From US20240247080A1, “GLP1/GIP/NPY2 RECEPTOR TRIPLE AGONISTS” (Boehringer Ingelheim International GmbH, priority 2022, published 2024)
Read-outs that look alike come from different tables or passages of the source. Starred links: 1 amine or outer side, 2 acyl side, 3 side chain; linkers in the order of their positions; H or OH if unused. Non-standard residues stand in square brackets, D forms with d. Groups on a side chain read outwards from the residue. *: point of attachment. C20 diacid = O=C(O)CCCCCCCCCCCCCCCCCCC(=O)*; γGlu = O=C(O)[C@H](CCC(=O)[*:2])N[*:1]; εLys = N[C@@H](CCCCN[*:1])C(=O)[*:2]; hArg = N=C(N)NCCCC[C@H](N)C(=O)O; β3hQ = NC(=O)CC[C@H](N)CC(=O)O; Tle = CC(C)(C)[C@H](N)C(=O)O; Aib = CC(C)(N)C(=O)O

What was measured:
Type in all cases: cell-based
Conditions in all cases: CreLuc reporter gene assay
hNPY2R = biological target: T1, hNPY2R (Homo sapiens, UniProt P49146); assay: hNPY2R CreLuc reporter gene assay in 0.5% and 100% plasma
T1 construct: expressed in transfected cells; host or cells: HEK-293 cells carrying a CRE-luciferase reporter gene
T1 sequence (P49146 1-381): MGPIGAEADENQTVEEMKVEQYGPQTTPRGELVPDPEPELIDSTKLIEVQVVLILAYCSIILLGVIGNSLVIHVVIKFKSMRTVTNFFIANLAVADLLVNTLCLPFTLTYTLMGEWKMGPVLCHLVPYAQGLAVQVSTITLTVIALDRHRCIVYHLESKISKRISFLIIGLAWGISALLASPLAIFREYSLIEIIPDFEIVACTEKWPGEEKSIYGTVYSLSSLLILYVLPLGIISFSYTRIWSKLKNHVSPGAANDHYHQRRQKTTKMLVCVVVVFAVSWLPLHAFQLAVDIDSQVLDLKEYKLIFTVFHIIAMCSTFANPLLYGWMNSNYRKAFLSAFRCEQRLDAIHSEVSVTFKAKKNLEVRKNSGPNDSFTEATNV
Outline: (§1)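 HEK-293 cells co-expressing GLP-1 or NPY2 receptor and CHO cells expressing GIP receptor, each carrying a CRE-driven luciferase reporter, were stimulated with peptides for 4 hours at 37 °C. Luminescence was read after Bright-Glo addition. EC50 came from 8-point, four-decade curves fitted by variable-slope non-linear regression.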

hGIPR = biological target: T2, hGIPR (Homo sapiens, UniProt P48546); assay: hGIPR CreLuc reporter gene assay in 0.5% and 100% plasma
T2 construct: expressed in transfected cells; host or cells: CHO cells carrying a CRE-luciferase reporter gene
T2 sequence (P48546 22-466): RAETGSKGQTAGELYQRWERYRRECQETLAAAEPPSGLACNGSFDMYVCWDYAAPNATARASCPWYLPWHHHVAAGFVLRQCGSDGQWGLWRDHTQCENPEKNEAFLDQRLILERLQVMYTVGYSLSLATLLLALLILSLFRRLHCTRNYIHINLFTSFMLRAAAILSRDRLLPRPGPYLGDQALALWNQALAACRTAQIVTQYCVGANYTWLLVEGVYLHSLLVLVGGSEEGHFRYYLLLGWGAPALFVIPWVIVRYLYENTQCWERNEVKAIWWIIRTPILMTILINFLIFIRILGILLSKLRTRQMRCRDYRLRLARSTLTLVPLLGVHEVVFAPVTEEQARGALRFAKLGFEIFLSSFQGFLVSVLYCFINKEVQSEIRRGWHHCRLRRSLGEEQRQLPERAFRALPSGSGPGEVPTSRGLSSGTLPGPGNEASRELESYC
Outline: as §1

hGLP1R = biological target: T3, hGLP1R (Homo sapiens, UniProt P43220); assay: hGLP1R CreLuc reporter gene assay in 0.5% and 100% plasma
T3 construct: expressed in transfected cells; host or cells: HEK-293 cells carrying a CRE-luciferase reporter gene
T3 sequence (P43220 24-463): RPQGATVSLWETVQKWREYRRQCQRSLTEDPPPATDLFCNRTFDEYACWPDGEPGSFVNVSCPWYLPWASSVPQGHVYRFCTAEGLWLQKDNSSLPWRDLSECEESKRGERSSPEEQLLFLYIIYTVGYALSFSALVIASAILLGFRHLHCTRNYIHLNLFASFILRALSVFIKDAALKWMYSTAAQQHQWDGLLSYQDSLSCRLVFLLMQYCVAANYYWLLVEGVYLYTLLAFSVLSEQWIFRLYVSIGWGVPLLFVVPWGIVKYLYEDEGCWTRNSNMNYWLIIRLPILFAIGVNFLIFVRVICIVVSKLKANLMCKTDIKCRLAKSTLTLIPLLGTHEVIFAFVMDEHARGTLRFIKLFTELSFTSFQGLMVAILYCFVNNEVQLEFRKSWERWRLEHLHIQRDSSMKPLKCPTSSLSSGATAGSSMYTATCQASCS
Outline: as §1

[1] = 0.5% human plasma, read-out: hNPY2R 0.5% hP
[2] = 0.5% human plasma, read-out: hGIPR 0.5% hP
[3] = 0.5% human plasma, read-out: hGLP1R 0.5% hP
[4] = 100% human plasma, read-out: hGIPR 100% hP
[5] = 100% human plasma, read-out: hNPY2R 100% hP

| Substance | EC50 (hNPY2R; [1]) | EC50 (hGIPR; [2]) | EC50 (hGLP1R; [3]) | EC50 (hGIPR; [4]) | EC50 (hNPY2R; [5]) | EC50 (hGLP1R; 100% human plasma, read-out: hGLP1R 100% hP) |
| --- | --- | --- | --- | --- | --- | --- |
| H-Y[Aib]EGTFTSDYSI[Aib]LEKQAQ[Aib]AFVEWLIK([εLys-γGlu-γGlu-γGlu-γGlu-γGlu-γGlu-C20 diacid])GGPSSGASLRHYLNL[Aib]TRQRY-NH2 [Compound 17, Y-Aib-E-G-T-F-T-S-D-Y-S-I-Aib-L-E-K-Q-A-Q-Aib-A-F-V-E-W-L-I-K(1,3)-G-G-P-S-S-G-A-S-L-R-H-Y-L-N-L-Aib-T-R-Q-R-Y-NH2.C20DA-gGlu-gGlu-gGlu-gGlu-gGlu-gGlu-eLys(1,2)] | > 100 nM | 0.43 nM | 0.14 nM | – | – | – |
| H-Y[Aib]EGTFTSDYSI[Aib]LEKQAQ[Aib]AFVEWLIK([εLys-γGlu-γGlu-γGlu-γGlu-γGlu-γGlu-C20 diacid])GGPSSGASLRHYYNWLTR[β3hQ]RY-NH2 [Compound 208, Y-Aib-E-G-T-F-T-S-D-Y-S-I-Aib-L-E-K-Q-A-Q-Aib-A-F-V-E-W-L-I-K(1,3)-G-G-P-S-S-G-A-S-L-R-H-Y-Y-N-W-L-T-R-bHGln-R-Y-NH2.C20DA-gGlu-gGlu-gGlu-gGlu-gGlu-gGlu-eLys(1,2)] | > 100 nM | 0.07 nM | 0.11 nM | 0.81 nM | > 1000 nM | – |
| H-Y[Aib]EGTFTSDYSI[Aib]LEKQAQ[Aib]AFVEWLIK([εLys-γGlu-γGlu-γGlu-γGlu-γGlu-γGlu-C20 diacid])GGPSSGASLRHYYNWLT[hArg]QR[dY]-NH2 [Compound 71, Y-Aib-E-G-T-F-T-S-D-Y-S-I-Aib-L-E-K-Q-A-Q-Aib-A-F-V-E-W-L-I-K(1,3)-G-G-P-S-S-G-A-S-L-R-H-Y-Y-N-W-L-T-hArg-Q-R-DTyr-NH2.C20DA-gGlu-gGlu-gGlu-gGlu-gGlu-gGlu-eLys(1,2)] | > 100 nM | 0.13 nM | 0.14 nM | 0.64 nM | > 1000 nM | 1.13 nM |
| H-Y[Aib]EGTFTSDYSI[Aib]LEKQAQ[Aib]AFVEWLIK([εLys-γGlu-γGlu-γGlu-γGlu-γGlu-γGlu-C20 diacid])GGPSSGASLRHYY[Aib]WLTRQRY-NH2 [Compound 213, Y-Aib-E-G-T-F-T-S-D-Y-S-I-Aib-L-E-K-Q-A-Q-Aib-A-F-V-E-W-L-I-K(1,3)-G-G-P-S-S-G-A-S-L-R-H-Y-Y-Aib-W-L-T-R-Q-R-Y-NH2.C20DA-gGlu-gGlu-gGlu-gGlu-gGlu-gGlu-eLys(1,2)] | > 100 nM | 0.34 nM | 0.16 nM | 1.53 nM | > 1000 nM | – |
| H-Y[Aib]EGTFTSDYSI[Aib]LEKQAQ[Aib]AFVEWLIK([εLys-γGlu-γGlu-γGlu-γGlu-γGlu-γGlu-C20 diacid])GGPSSGASLRHY[Aib]NR[Aib]TRQRY-NH2 [Compound 18, Y-Aib-E-G-T-F-T-S-D-Y-S-I-Aib-L-E-K-Q-A-Q-Aib-A-F-V-E-W-L-I-K(1,3)-G-G-P-S-S-G-A-S-L-R-H-Y-Aib-N-R-Aib-T-R-Q-R-Y-NH2.C20DA-gGlu-gGlu-gGlu-gGlu-gGlu-gGlu-eLys(1,2)] | 85.7 nM | 0.36 nM | 0.12 nM | – | – | – |
| H-Y[Aib]EGTFTSDYSI[Aib]LEKQAQ[Aib]AFVEWLIK([εLys-γGlu-γGlu-γGlu-γGlu-γGlu-γGlu-C20 diacid])GGPSSGASLRHY[Aib]NWLTRQRY-NH2 [Compound 184, Y-Aib-E-G-T-F-T-S-D-Y-S-I-Aib-L-E-K-Q-A-Q-Aib-A-F-V-E-W-L-I-K(1,3)-G-G-P-S-S-G-A-S-L-R-H-Y-Aib-N-W-L-T-R-Q-R-Y-NH2.C20DA-gGlu-gGlu-gGlu-gGlu-gGlu-gGlu-eLys(1,2)] | 46 nM | 0.28 nM | 0.18 nM | 1.37 nM | – | – |
| H-Y[Aib]EGTFTSDYSI[Aib]LEKQAQ[Aib]AFVEWLIK([εLys-γGlu-γGlu-γGlu-γGlu-γGlu-γGlu-C20 diacid])GGPSSGASLR[Aib]YYNWLTRQRY-NH2 [Compound 182, Y-Aib-E-G-T-F-T-S-D-Y-S-I-Aib-L-E-K-Q-A-Q-Aib-A-F-V-E-W-L-I-K(1,3)-G-G-P-S-S-G-A-S-L-R-Aib-Y-Y-N-W-L-T-R-Q-R-Y-NH2.C20DA-gGlu-gGlu-gGlu-gGlu-gGlu-gGlu-eLys(1,2)] | 70.4 nM | 0.21 nM | 0.13 nM | 1.39 nM | – | – |
| H-Y[Aib]EGTFTSDYSI[Aib]LEKQAQ[Aib]AFVEWLIK([εLys-γGlu-γGlu-γGlu-γGlu-γGlu-γGlu-C20 diacid])GGPSSGASL[Aib]HYYNWLTRQRY-NH2 [Compound 129, Y-Aib-E-G-T-F-T-S-D-Y-S-I-Aib-L-E-K-Q-A-Q-Aib-A-F-V-E-W-L-I-K(1,3)-G-G-P-S-S-G-A-S-L-Aib-H-Y-Y-N-W-L-T-R-Q-R-Y-NH2.C20DA-gGlu-gGlu-gGlu-gGlu-gGlu-gGlu-eLys(1,2)] | 30.9 nM | 0.06 nM | 0.04 nM | 0.5 nM | 87.6 nM | – |
| H-Y[Aib]EGTFTSDYSI[Aib]LEKQAQ[Aib]AFVEWLIK([εLys-γGlu-γGlu-γGlu-γGlu-γGlu-γGlu-C20 diacid])GGPSSGASVRHYYNWLTRQRY-NH2 [Compound 117, Y-Aib-E-G-T-F-T-S-D-Y-S-I-Aib-L-E-K-Q-A-Q-Aib-A-F-V-E-W-L-I-K(1,3)-GGPSSGASVRHYYNWLTRQRY-NH2.C20DA-gGlu-gGlu-gGlu-gGlu-gGlu-gGlu-eLys(1,2)] | – | 0.14 nM | 0.13 nM | 1.18 nM | 24.6 nM | – |

Further substances by falling EC50 (hGIPR; [2]), results first:

| EC50 (hNPY2R; [1]) | EC50 (hGIPR; [2]) | EC50 (hGLP1R; [3]) | EC50 (hGIPR; [4]) | EC50 (hNPY2R; [5]) | EC50 (hGLP1R; 100% human plasma, read-out: hGLP1R 100% hP) | Substance |
| --- | --- | --- | --- | --- | --- | --- |
| 23.1 nM | 0.63 nM | 0.26 nM | – | – | – | H-Y[Aib]EGTFTSDYSI[Aib]LEKQAQ[Aib]AFVEWLIK([εLys-γGlu-γGlu-γGlu-γGlu-γGlu-γGlu-C20 diacid])GGPSSGASLR[Tle]YYNWLTRQRY-NH2 [Compound 119, Y-Aib-E-G-T-F-T-S-D-Y-S-I-Aib-L-E-K-Q-A-Q-Aib-A-F-V-E-W-L-I-K(1,3)-G-G-P-S-S-G-A-S-L-R-Tle-Y-Y-N-W-L-T-R-Q-R-Y-NH2.C20DA-gGlu-gGlu-gGlu-gGlu-gGlu-gGlu-eLys(1,2)] |
| 14.1 nM | 0.48 nM | 0.16 nM | – | – | – | H-Y[Aib]EGTFTSDYSI[Aib]LEKQAQ[Aib]AFVEWLIK([εLys-γGlu-γGlu-γGlu-γGlu-γGlu-γGlu-C20 diacid])GGPSSGASLRHY[Tle]NWLTRQRY-NH2 [Compound 133, Y-Aib-E-G-T-F-T-S-D-Y-S-I-Aib-L-E-K-Q-A-Q-Aib-A-F-V-E-W-L-I-K(1,3)-G-G-P-S-S-G-A-S-L-R-H-Y-Tle-N-W-L-T-R-Q-R-Y-NH2.C20DA-gGlu-gGlu-gGlu-gGlu-gGlu-gGlu-eLys(1,2)] |
| 87.6 nM | 0.29 nM | 0.11 nM | 1.86 nM | – | – | H-Y[Aib]EGTFTSDYSI[Aib]LEKQAQ[Aib]AFVEWLIK([εLys-γGlu-γGlu-γGlu-γGlu-γGlu-γGlu-C20 diacid])GGPSSGASLRHYYNL[Aib]TRQRY-NH2 [Compound 79, Y-Aib-E-G-T-F-T-S-D-Y-S-I-Aib-L-E-K-Q-A-Q-Aib-A-F-V-E-W-L-I-K(1,3)-G-G-P-S-S-G-A-S-L-R-H-Y-Y-N-L-Aib-T-R-Q-R-Y-NH2.C20DA-gGlu-gGlu-gGlu-gGlu-gGlu-gGlu-eLys(1,2)] |
| 20.5 nM | 0.26 nM | 0.14 nM | – | – | – | H-Y[Aib]EGTFTSDYSI[Aib]LEKQAQ[Aib]AFVEWLIK([εLys-γGlu-γGlu-γGlu-γGlu-γGlu-γGlu-C20 diacid])GGPSSGASLRHYINWLTRQRY-NH2 [Compound 106, Y-Aib-E-G-T-F-T-S-D-Y-S-I-Aib-L-E-K-Q-A-Q-Aib-A-F-V-E-W-L-I-K(1,3)-GGPSSGASLRHYINWLTRQRY-NH2.C20DA-gGlu-gGlu-gGlu-gGlu-gGlu-gGlu-eLys(1,2)] |
| > 99.9 nM | 0.23 nM | 0.17 nM | 2 nM | > 999 nM | – | H-Y[Aib]EGTFTSDYSI[Aib]LEKQAQ[Aib]AFVEWLIK([εLys-γGlu-γGlu-γGlu-γGlu-γGlu-γGlu-C20 diacid])GGPSSGASLRHYYNWLTRQR[Tle]-NH2 [Compound 191, Y-Aib-E-G-T-F-T-S-D-Y-S-I-Aib-L-E-K-Q-A-Q-Aib-A-F-V-E-W-L-I-K(1,3)-GGPSSGASLRHYYNWLTRQR-Tle-NH2.C20DA-gGlu-gGlu-gGlu-gGlu-gGlu-gGlu-eLys(1,2)] |
